Legend:
[1] = test system: LU65; test: Cytotoxicity test with pemetrexed upon addition of each example compound (CellTiter-Glo); format: cell-based, human; conditions: combination with pemetrexed, LU65 cells, 7 days; maximum value, at the MYT1 inhibitor and pemetrexed concentrations
Protocol: LU65 (received from human tissue bank (JCRB Cell Bank)) was used in the evaluation of the present invention. LU65 is a lung cancer cell line having a truncated deletion mutation of S82* in RB1 gene (see Nature. 2019 May; 569(7757): 503-508. (Non Patent Literature 22)), in which the function of RB1 is decreased. The cell culture was carried out using RPMI-1640 (manufactured by SIGMA) containing 10% FBS (manufactured by SIGMA).
Each pemetrexed (manufactured by Tokyo Kasei Kogyo Co., Ltd.) and each example compound of each concentration were diluted using a DMSO solution, and 0.04 μL of each of series of dilution and DMSO was added to each well of cell culture plate using Echo 555 Liquid Handler (manufactured by Beckman Coulter Inc.). 1000 LU65 cells ([…]) were added to each well, which was cultured at 37° C. in a 5% CO2 incubator for 7 days. Intracellular ATP level which is a cell survival marker was measured and used in the monitoring of cell number. After culturing, 20 μL of CellTiter-Glo (registered trademark) 2.0 (manufactured by Promega) was added to each well, and the emission intensity was measured using Multimode Plate Reader En Vision (registered trademark) Xcite (manufactured by PerkinElmer). The cell survival rate under each condition was calculated by setting the value obtained by subtracting the luminescence of the cell unseeded well from the luminescence of the DMSO-added well as 100%, and calculating the proportion of a value obtained by subtracting the luminescence of the cell unseeded well from the luminescence detected at each well.
In addition, the cytotoxic activity under each condition was calculated by subtracting the survival rate in a combination of pemetrexed of each treatment concentration and each example compound of each treatment concentration, from 100%.

[2] = target: MYT1 protein (Homo sapiens (Human), UniProt Q99640); test: Test for binding to ATP binding site of MYT1 (Kinase Tracer 178 / Eu-Anti-GST antibody TR-FRET); conditions: ATP binding site of MYT1, 30 minutes at room temperature
Chain of MYT1 protein (Q99640 whole entry): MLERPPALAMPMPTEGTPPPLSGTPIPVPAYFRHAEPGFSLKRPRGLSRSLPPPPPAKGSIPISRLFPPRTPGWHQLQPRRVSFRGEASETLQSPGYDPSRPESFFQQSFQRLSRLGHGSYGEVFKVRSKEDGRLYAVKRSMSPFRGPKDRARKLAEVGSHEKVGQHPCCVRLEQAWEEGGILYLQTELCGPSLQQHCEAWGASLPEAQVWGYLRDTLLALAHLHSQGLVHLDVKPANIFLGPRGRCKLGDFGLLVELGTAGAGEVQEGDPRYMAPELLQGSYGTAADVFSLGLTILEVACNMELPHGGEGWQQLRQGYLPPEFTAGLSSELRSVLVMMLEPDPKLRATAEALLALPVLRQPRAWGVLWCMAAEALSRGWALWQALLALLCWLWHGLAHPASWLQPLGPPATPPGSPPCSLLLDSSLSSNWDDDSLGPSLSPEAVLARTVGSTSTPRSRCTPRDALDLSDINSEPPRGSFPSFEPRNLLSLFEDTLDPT

Compound	Bliss Score (Max) [1] [%]	HSA Score (MAX) [1] [%]	IC50 [2] [nM]
N#C[C@H]1C[C@H](Oc2cc3c(-c4ccc(Cl)c5[nH]ncc45)c(N)c(=O)[nH]c3cc2Cl)C1 [Compound A12, (1r,3r)-3-[[3-Amino-7-chloro-4-(7-chloro-1H-indazol-4-yl)-2-oxo-1H-quinolin-6-yl]oxy]cyclobutane-1-carbonitrile]	61	70	2.6
COc1cc2c(-c3ccc(F)c4[nH]ncc34)c(N)c(=O)[nH]c2c2cc(F)cnc12 [Compound F2, 3-Amino-9-fluoro-4-(7-fluoro-1H-indazol-4-yl)-6-methoxy-1H-1,7-phenanthrolin-2-one]	86	83	1.6
Nc1c(-c2ccc(F)c3[nH]ncc23)c2cc(C3CC3)c3cnsc3c2[nH]c1=O [Compound H3, 7-Amino-4-cyclopropyl-6-(7-fluoro-1H-indazol-4-yl)-9H-[1,2]thiazolo[4,5-h]quinolin-8-one]	61	61	2.7
Cc1nc2c(C)cc3c(-c4ccc(F)c5[nH]ncc45)c(N)c(=O)[nH]c3c2s1 [Compound K4, 7-Amino-6-(7-fluoro-1H-indazol-4-yl)-2,4-dimethyl-9H-[1,3]thiazolo[4,5-h]quinolin-8-one]	56	66	2.7
Nc1c(-c2ccc(F)c3[nH]ncc23)c2cc(C3CC3)c3ccsc3c2[nH]c1=O [Compound L3, 7-Amino-4-cyclopropyl-6-(7-fluoro-1H-indazol-4-yl)-9H-thieno[3,2-h]quinolin-8-one]	51	61	2.3
Cn1cnc2c3[nH]c(=O)c(N)c(-c4ccc(F)c5[nH]ncc45)c3cc(C3CC3)c21 [Compound M4, 7-Amino-4-cyclopropyl-6-(7-fluoro-1H-indazol-4-yl)-3-methyl-9H-imidazo[4,5-h]quinolin-8-one]	51	60	19
Nc1c(-c2ccc(F)c3[nH]ncc23)c2cc(C3CC3)c3scnc3c2[nH]c1=O [Compound N2, 7-Amino-4-cyclopropyl-6-(7-fluoro-1H-indazol-4-yl)-9H-[1,3]thiazolo[5,4-h]quinolin-8-one]	50	57	3.3
Cc1nc2c(-c3ccc(F)c4[nH]ncc34)c(N)c(=O)[nH]c2c2cccnc12 [Compound O1, 3-Amino-4-(7-fluoro-1H-indazol-4-yl)-6-methyl-1H-pyrido[2,3-h][1,5]naphthyridin-2-one]	37	44	1.1

Source: patent publication US20260062412A1, “NITROGEN-CONTAINING HETEROCYCLIC COMPOUND HAVING MYT1 INHIBITORY ACTIVITY” (CHUGAI SEIYAKU KABUSHIKI KAISHA, priority 2023, published 2026)
